Legend:
VpGSTT2 = molecular target: T1, VpGSTT2 (Vibrio parahaemolyticus, UniProt Q87HB4); assay: spectrophotometric CDNB conjugation at […] nm, initial rates; assay type: biochemical; conditions: read-out: CDNB / Km; CDNB 0.3-2 mM, GSH 0.5 mM fixed; phosphate buffer (0.1 M NaH2PO4 pH 6.5), room temperature
T1 construct: gene VPA1051; Full coding region, synthetic E. coli-optimised gene in pET11a; C-terminal PreScission site and 6xHis tag (tag removal described); E. coli BL21(DE3) Gold
T1 sequence (Q87HB4 1-204): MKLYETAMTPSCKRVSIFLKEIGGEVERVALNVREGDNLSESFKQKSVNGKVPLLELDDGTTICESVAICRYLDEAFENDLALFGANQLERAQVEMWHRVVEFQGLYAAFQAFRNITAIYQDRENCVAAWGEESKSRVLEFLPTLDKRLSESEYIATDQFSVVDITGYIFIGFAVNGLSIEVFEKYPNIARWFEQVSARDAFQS

[1] = molecular target: Glutathione S-transferase class Gtt2 from Vibrio parahaemolyticus (VpGSTT2) (Vibrio parahaemolyticus (strain FIM-S1708+)); assay: SEC; Superdex 75 HR 10/300 GL on an Äkta Pure, calibrated with molecular-weight standards (conalbumin, ovalbumin, carbonic anhydrase, ribonuclease A, aprotinin); VpGSTT2 eluted at 10.8 mL, corresponding to 48.2 kDa; protein dialysed against Tris-HCl, 150 mM NaCl, pH 7.2

## O=[N+]([O-])c1ccc(Cl)c([N+](=O)[O-])c1 [CDNB, 1-chloro-2,4-dinitrobenzene]
VpGSTT2
  Km: 1000 µM

## Glutathione S-transferase class Gtt2 from Vibrio parahaemolyticus (VpGSTT2) (enzyme)
[1]
  stoichiometry N: 2

Reference: PMC8472993, “A Novel Glutathione S-Transferase Gtt2 Class (VpGSTT2) Is Found in the Genome of the AHPND/EMS Vibrio parahaemolyticus Shrimp Pathogen” (Toxins, 2021)
